In US9238619B2, “Phenalkylamine derivatives, pharmaceutical compositions containing them, and their use in therapy” (AbbVie Deutschland GmbH & Co. KG, priority 2010, dated 2016):
Structures can show the parent of a compound that is named as a salt.

molecular target: human GlyT1c transporter (Homo sapiens (Human), UniProt P48067); experiment: Radioligand binding assays using recombinant CHO cell membranes expressing human GlyT1; settings: read-out: radioligand binding Kiapp
Protocol: Radioligand binding to human GlyT1c transporter-expressing membranes was determined as described in Mezler et al., Molecular Pharmacology 74:1705-1715, 2008.

Chain of human GlyT1c transporter (P48067 whole entry): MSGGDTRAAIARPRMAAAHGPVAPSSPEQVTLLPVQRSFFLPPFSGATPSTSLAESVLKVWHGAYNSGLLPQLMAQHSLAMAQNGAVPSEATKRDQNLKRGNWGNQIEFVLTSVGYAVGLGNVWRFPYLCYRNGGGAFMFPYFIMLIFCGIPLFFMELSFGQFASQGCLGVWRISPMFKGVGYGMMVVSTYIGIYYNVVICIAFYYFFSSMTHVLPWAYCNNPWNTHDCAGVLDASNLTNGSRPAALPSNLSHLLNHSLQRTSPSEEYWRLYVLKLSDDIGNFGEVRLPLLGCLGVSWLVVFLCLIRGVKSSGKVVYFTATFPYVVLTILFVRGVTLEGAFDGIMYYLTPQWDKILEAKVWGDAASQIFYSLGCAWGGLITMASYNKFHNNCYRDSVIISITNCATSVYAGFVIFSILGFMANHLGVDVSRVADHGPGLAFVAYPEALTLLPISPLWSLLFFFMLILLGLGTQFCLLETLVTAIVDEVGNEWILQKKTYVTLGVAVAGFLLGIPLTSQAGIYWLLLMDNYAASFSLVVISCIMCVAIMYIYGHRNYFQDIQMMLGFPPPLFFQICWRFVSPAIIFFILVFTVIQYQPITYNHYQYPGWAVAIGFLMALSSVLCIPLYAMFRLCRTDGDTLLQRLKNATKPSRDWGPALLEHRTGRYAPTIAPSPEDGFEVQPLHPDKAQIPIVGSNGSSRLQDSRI

| Structure (SMILES) | Ki [µM] |
| --- | --- |
| O=S(=O)(CC1CC1)NCCOc1cccc(C2(Cc3ccccc3)CNC2)c1 [Example 49, N-{2-[3-(3-Benzyl-azetidin-3-yl)-phenoxy]-ethyl}-C-cyclopropyl-methane sulfonamide] | ≤ 1 |
| CCOC(=O)N1CC(Cc2ccccc2)(c2cccc(OCCNS(=O)(=O)c3cnn(C)c3)c2)C1 [Example 46, 3-Benzyl-3-{3-[2-(1-methyl-1H-pyrazole-4-sulfonylamino)-ethoxy]-phenyl}-azetidine-1-carboxylic acid ethyl ester] | ≤ 10 |
| CN(C)CC(Cc1ccccc1)c1cccc(CNS(=O)(=O)c2cnn(C)c2)c1 (centres unmarked) [Example 27, 1-Methyl-1H-pyrazole-4-sulfonic acid 3-(1-benzyl-2-dimethylamino-ethyl)benzylamide] | ≤ 1 |
| Cn1cnc(S(=O)(=O)NCCOc2cccc(C3(Cc4ccccc4)CN(CC(F)F)C3)c2)c1 [Example 55, 1-Methyl-1H-imidazole-4-sulfonic acid (2-{3-[3-benzyl-1-(2,2-difluoro-ethyl)azetidin-3-yl]-phenoxy}-ethyl)-amide] | ≤ 1 |
| Cn1cnc(S(=O)(=O)NCCOc2cccc(C3(Cc4ccccc4)CN(CC(F)(F)F)C3)c2)c1 [Example 54, 1-Methyl-1H-imidazole-4-sulfonic acid (2-{3-[3-benzyl-1-(2,2,2-trifluoro-ethyl)azetidin-3-yl]-phenoxy}-ethyl)-amide] | ≤ 1 |
| Cn1cc(S(=O)(=O)NCCOc2cc(C(CN)Cc3ccccc3)ccc2F)cn1 (centres unmarked) [Example 3, 1-Methyl-1H-pyrazole-4-sulfonic acid {2-[5-(2-amino-1-benzyl-ethyl)-2-fluoro-phenoxy]-ethyl}-amide, hydrochloride] | ≤ 0.1 |
| Cn1cc(S(=O)(=O)NCCOc2cccc(C(CN)Cc3cc(F)cc(F)c3)c2)cn1 (centres unmarked) [Example 7, 1-Methyl-1H-pyrazole-4-sulfonic acid (2-{3-[2-amino-1-(3,5-difluoro-benzyl)ethyl]-phenoxy}-ethyl)-amide, hydrochloride] | ≤ 1 |
| CN(Cc1cccc(C(CNC(=O)OC(C)(C)C)C2(c3ccc(Cl)cc3)CCC2)c1)S(=O)(=O)c1cnn(C)c1 (centres unmarked) [Example 39, tert-Butyl {2-[1-(4-chlorophenyl)cyclobutyl]-2-[3-({methyl[(1-methyl-1H-pyrazol-4-yl)sulfonyl]amino}methyl)phenyl]ethyl}carbamate] | ≤ 10 |
| Cn1cnc(S(=O)(=O)NCc2cccc(C(Cc3ccccc3)CN3CCOCC3)c2)c1 (centres unmarked) [Example 20, 1-Methyl-1H-imidazole-4-sulfonic acid 3-(1-benzyl-2-morpholin-4-yl-ethyl)benzylamide] | ≤ 10 |
| Cn1cc(S(=O)(=O)NCc2cccc(C(Cc3ccccc3)CN3CCC3)c2)cn1 (centres unmarked) [Example 37, 1-Methyl-1H-pyrazole-4-sulfonic acid 3-(2-azetidin-1-yl-1-benzyl-ethyl)benzylamide, hydrochloride] | ≤ 1 |
| Cn1cnc(S(=O)(=O)NCCOc2cccc(C(CN)Cc3cccc(Cl)c3)c2)c1 (centres unmarked) [Example 9, 1-Methyl-1H-imidazole-4-sulfonic acid (2-{3-[2-amino-1-(3-chloro-benzyl)ethyl]-phenoxy}-ethyl)-amide, hydrochloride] | ≤ 1 |
